Measurements published in US20060166900A1, “Salt of morphine-6-glucuronide” (CeNeS Limited, priority 2002, published 2006).

What was measured:
Format in all cases: physicochemical
[1] = Stability of M6G salts at room temperature over 6 years, HPLC; conditions: for Assay M6G corr.: content calculated as M6G derivative
[2] = Visual appearance on storage (Example 3)
In short: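 Aliquots (900 mg) kept at 2-8 °C beforehand were stored in argon-flushed brown opaque HDPE bottles at 25 °C/60% RH, 40 °C/75% RH and 60 °C. Visual appearance was assessed at set time points.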

[3] = Water content by Karl Fisher analysis on storage (Example 3)
In short: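 900 mg aliquots were held in argon-flushed brown opaque HDPE bottles at 25 °C/60% RH, 40 °C/75% RH and 60 °C. At each time point, water content (% w/w) was determined in duplicate on about 100 mg of equilibrated material by Karl Fischer titration.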

[4] = Colour of solution by visible spectrophotometry on storage (Example 3); conditions: 5% w/v solution in water
In short: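 5% w/v aqueous solution, absorbance at 420 nm in a 1 cm silica cell. Samples were stored in argon-flushed brown opaque HDPE bottles at 25° C./60% RH, 40° C./75% RH and 60° C.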

[5] = Stability indicating HPLC assay and related substances on storage (Example 3)

CN1CC[C@]23c4c5ccc(O)c4O[C@H]2[C@@H](O[C@@H]2O[C@H](C(=O)O)[C@@H](O)[C@H](O)[C@H]2O)C=C[C@H]3[C@H]1C5.Cl [Morphine-6-glucuronide hydrochloride]
HN-33177 ([1]; 0 years): 0.3% | HN-75083 ([1]; 0 years): <0.1% | Unknown related substances (sum area %) ([1]; 0 years): <0.1 area % | Assay M6G corr. ([1]; 0 years): 88.7% | HN-67002 ([1]; 6 years at ambient temperature): 1.3% | HN-67003 ([1]; 6 years at ambient temperature): 2.1% | Morphine ([1]; 6 years at ambient temperature): 0.2% | Unknown related substances (sum area %) ([1]; 6 years at ambient temperature): 9.2 area % | Assay M6G corr. ([1]; 6 years at ambient temperature): 74.8% | HN-33177 ([1]; 6 years at ambient temperature, hydrochloride): 0.2% | HN-33177 ([1]; 6 years at ambient temperature, listed as M6G.HCl, hydrochloride): remained unchanged | peaks present in the chromatogram that cannot be identified by retention time ([1]; almost 6 years at room temperature): 17 | Appearance ([2]; 1 month, 25° C./60% RH): White crystalline powder | Appearance ([2]; 1 month, 40° C./75% RH): Slightly yellow crystalline powder | Appearance ([2]; 1 month, 60° C.): Pale yellow crystalline powder | Appearance ([2]; 3 months, 25° C./60% RH, hydrochloride): White crystalline powder | Appearance ([2]; 3 months, 25° C./60% RH, listed as hydrochloride, hydrochloride): white crystalline solids | Appearance ([2]; 3 months, 40° C./75% RH): Yellow crystalline powder | Appearance ([2]; Initial): White crystalline powder | Moisture ([3]; 1 month, 25° C./60% RH): 5.10 % w/w | Moisture ([3]; 1 month, 40° C./75% RH): 6.24 % w/w | Moisture ([3]; 1 month, 60° C.): 4.44 % w/w | Moisture ([3]; 3 months, 25° C./60% RH): 6.06 % w/w | Moisture ([3]; 3 months, 40° C./75% RH): 9.02 % w/w | Moisture ([3]; Initial): 4.31 % w/w | Colour ([4]; 1 month, 25° C./60% RH): 0.147 Abs@420 nm | Colour ([4]; 1 month, 40° C./75% RH): 0.444 Abs@420 nm | Colour ([4]; 1 month, 60° C.): 1.183 Abs@420 nm | Colour ([4]; 3 months, 25° C./60% RH): 0.253 Abs@420 nm | Colour ([4]; 3 months, 40° C./75% RH): 2.107 Abs@420 nm | Colour ([4]; Initial): 0.059 Abs@420 nm | Known Related Substances HN33177 ([5]; 1 month, 25° C./60% RH): 0.63% | Known Related Substances HN67003 ([5]; 1 month, 25° C./60% RH): 0.38% | Known Related Substances HN75076 ([5]; 1 month, 25° C./60% RH): 0.04% | Known Related Substances HN75083 ([5]; 1 month, 25° C./60% RH): 0.03% | M6G Assay, Anhydrous basis ([5]; 1 month, 25° C./60% RH): 92.03 % w/w | M6G Assay, As is basis ([5]; 1 month, 25° C./60% RH): 79.21 % w/w | M6G Assay, Corrected for the salt form ([5]; 1 month, 25° C./60% RH): 99.30 % w/w | Total Known ([5]; 1 month, 25° C./60% RH): 1.08% | Total Related Substances ([5]; 1 month, 25° C./60% RH): 2.41% | Total Unknown ([5]; 1 month, 25° C./60% RH): 1.33% | Known Related Substances HN33177 ([5]; 1 month, 40° C./75% RH): 0.41% | Known Related Substances HN67003 ([5]; 1 month, 40° C./75% RH): 3.01% | Known Related Substances HN75076 ([5]; 1 month, 40° C./75% RH): 0.34% | Known Related Substances HN75083 ([5]; 1 month, 40° C./75% RH): 0.07% | Known Related Substances Morphine ([5]; 1 month, 40° C./75% RH): 0.08% | M6G Assay, Anhydrous basis ([5]; 1 month, 40° C./75% RH): 81.39 % w/w | M6G Assay, As is basis ([5]; 1 month, 40° C./75% RH): 69.13 % w/w | M6G Assay, Corrected for the salt form ([5]; 1 month, 40° C./75% RH): 87.81 % w/w | Total Known ([5]; 1 month, 40° C./75% RH): 3.91% | Total Related Substances ([5]; 1 month, 40° C./75% RH): 15.16% | Total Unknown ([5]; 1 month, 40° C./75% RH): 11.25% | Known Related Substances HN33177 ([5]; 1 month, 60° C.): 0.12% | Known Related Substances HN67003 ([5]; 1 month, 60° C.): 3.55% | Known Related Substances HN75076 ([5]; 1 month, 60° C.): 0.55% | Known Related Substances HN75083 ([5]; 1 month, 60° C.): 0.03% | Known Related Substances Morphine ([5]; 1 month, 60° C.): 0.46% | M6G Assay, Anhydrous basis ([5]; 1 month, 60° C.): 75.78 % w/w | M6G Assay, As is basis ([5]; 1 month, 60° C.): 65.73 % w/w | M6G Assay, Corrected for the salt form ([5]; 1 month, 60° C.): 81.76 % w/w | Total Known ([5]; 1 month, 60° C.): 4.71% | Total Related Substances ([5]; 1 month, 60° C.): 20.94% | Total Unknown ([5]; 1 month, 60° C.): 16.23% | Known Related Substances HN33177 ([5]; 3 months, 25° C./60% RH): 0.50% | Known Related Substances HN67003 ([5]; 3 months, 25° C./60% RH): 1.31% | Known Related Substances HN75083 ([5]; 3 months, 25° C./60% RH): 0.03% | Known Related Substances Morphine ([5]; 3 months, 25° C./60% RH): 0.21% | M6G Assay, Anhydrous basis ([5]; 3 months, 25° C./60% RH): 87.71 % w/w | M6G Assay, As is basis ([5]; 3 months, 25° C./60% RH): 75.48 % w/w | M6G Assay, Corrected for the salt form ([5]; 3 months, 25° C./60% RH): 94.64 % w/w | Total Known ([5]; 3 months, 25° C./60% RH): 2.05% | Total Related Substances ([5]; 3 months, 25° C./60% RH): 9.52% | Total Unknown ([5]; 3 months, 25° C./60% RH): 7.47% | decrease in assay compared to initial ([5]; 3 months, 25° C./60% RH): around 6% | Known Related Substances HN33177 ([5]; 3 months, 40° C./75% RH): 0.07% | Known Related Substances HN67003 ([5]; 3 months, 40° C./75% RH): 3.71% | Known Related Substances HN75076 ([5]; 3 months, 40° C./75% RH): 1.67% | Known Related Substances HN75083 ([5]; 3 months, 40° C./75% RH): 0.01% | Known Related Substances Morphine ([5]; 3 months, 40° C./75% RH): 1.55% | M6G Assay, Anhydrous basis ([5]; 3 months, 40° C./75% RH): 61.41 % w/w | M6G Assay, As is basis ([5]; 3 months, 40° C./75% RH): 51.00 % w/w | M6G Assay, Corrected for the salt form ([5]; 3 months, 40° C./75% RH): 66.26 % w/w | Total Known ([5]; 3 months, 40° C./75% RH): 7.01% | Total Unknown ([5]; 3 months, 40° C./75% RH): 51.57% | drop in assay compared to the initial values ([5]; 3 months, 40° C./75% RH): approx 34% | Total Related Substances ([5]; 3 months, 40° C./75% RH, hydrochloride): 58.58% | Total Related Substances ([5]; 3 months, 40° C./75% RH, listed as hydrochloride, hydrochloride): around 54.5% | stability assessment ([5]; 40° C./75% RH over 3 months (base also 60° C. over 1 month)): least stable | Known Related Substances HN33177 ([5]; Initial): 0.63% | Known Related Substances HN67003 ([5]; Initial): 0.07% | Known Related Substances HN75076 ([5]; Initial): 0.01% | Known Related Substances HN75083 ([5]; Initial): 0.06% | M6G Assay, Anhydrous basis ([5]; Initial): 93.28 % w/w | M6G Assay, As is basis ([5]; Initial): 81.63 % w/w | M6G Assay, Corrected for the salt form ([5]; Initial): 100.65 % w/w | Total Known ([5]; Initial): 0.77% | Total Related Substances ([5]; Initial): 1.24% | Total Unknown ([5]; Initial): 0.47% | overall stability comparison ([5]; overall review of Example 3 data): least stable
